Test results from US9913858B2, “Prevention and treatment of toxicosis” (priority 2013, dated 2018).
Marks after values point to notes of the source that are not given here.

What was measured:
[1] = system: lolitrem B toxicosis (Rye Grass Staggers); assay: Clinical and neurological signs in sheep fed lolitrem B-containing toxic feed with or without potassium bromide; format: in vivo
Experimental: Animals were exposed to a controlled diet containing 0.16 mg/kg body weight (BW) lolitrem B toxin rising to 0.27 mg/kg BW after 21 days exposure to toxic feed. Toxin was delivered as perennial rye grass seed (GA66 AR98, Grasslanz Technology Ltd, NZ) containing very high levels of lolitrem B toxin (11 ppm DM) as a component of the animal's feed intake.
On entry to the trial, all animals receiving toxic feed were exposed to a diet containing experimental ryegrass seed with a final lolitrem B concentration of 0.08 mg/kg LW, lucerne chaff and molasses 30% w/v for 3 days. After this induction period, the toxin content of the feed was increased to 0.16 mg/kg LW for the duration of the trial. […] Ryegrass seed constituted up to 65% of available Feed on Offer (FOO) by dry weight contributing a metabolisable energy of 12.1 Mj/kg DM.
At entry to the trial, all animals were subjected to a full clinical examination. Live weight was recorded. Venous blood and urine samples were collected for laboratory. Animals were also subjected to gait analysis, neurological examination including proprioceptive testing, cranial nerve examination and papillary light and menace reflexes. Electromyography (EMG) of tricep and neck muscles was performed. Gait analysis (see below) was repeated at three day intervals until onset of significant clinical signs and/or gait abnormality at which point animals were subjected to gait analysis daily. Gait analysis was recorded on video each occasion.
General clinical signs were also noted on a daily basis; these included observations of nervousness or agitation, changes in normal placement of body, limb or head position changes in faecal consistency, feeding behaviour or water consumption, observeable tremor of the body or head, eye position (strabismus) and movement (nystagmus), locomotory disturbances, or any other clinical changes worthy of note. Feed and water intake was monitored daily for the duration of the trial. Heart rate, respiration rate at rest and rectal temperature were also monitored daily.
Prophylactic sheep received a split loading dose of 300 mg/kg on day 1, 120 mg/kg (100 mg LD+20 mg/kg daily maintenance dose) on day 2, 120 mg/kg on day 3 and 20 mg/kg daily for the duration of the trial. An acute treatment dose of 300 mg/kg LW was used for the trial. Both prophylactic and acute treatment doses were envisaged to give serum concentrations of 750 to 1000 μg/ml for the duration of the initial weeks of the trial.
Group 1—Negative Control: lucerne chaff only;
Group 2—Positive Control: lucerne chaff containing 0.16 mg/kg LW lolitrem B;
Prophylactic treatment sheep (Groups 4 & 5) received a split loading dose of 300 mg/kg on day 1 of the trial, 120 mg/kg (100 mg LD 20 mg/kg daily maintenance dose) on day 2, 120 mg/kg on day 3 and 20 mg/kg daily thereafter. Acute therapy sheep were dosed with a single dose of 300 mg/kg on day of falling.
End of the trial was defined for Groups 2 and 3 as date of falling. Group 1 animals entered the end of trial protocol with their Group 2 counterparts. Group 4 and 5 animals entered the end of trial protocol after 22 days. This end of trial protocol consisted of the following analysis: • On Day 1: animals were subjected to a full clinical examination, gait analysis, urine and blood collection, neurological examination and EMG. • On Day 2: further gait analysis was recorded, • On Day 3: animals were again subjected to full clinical examination, gait analysis, urine and blood collection, neurological examination and EMG as well as live weight recorded prior to necropsy.

[2] = system: sheep; assay: Clinical pathology of serum and urine; format: in vivo; conditions: toxin only and acute treatment groups, not outside normal ranges
From the text: Venous blood samples collected for biochemical analysis and haematocrit (PCV), and urine for USG, at three specific time points during the experiment for all animals: 1) on entry to the trial; 2) on date of entry to the end of trial protocol and, 3) on day of necropsy. Additional venous blood samples were occasionally collected for analysis of serum bromide (see below).
For venous sampling, blood was collected from either the right or left jugular vein as determined by convenience and sampler preference. Needle hubs and sterile, single use 21 G needles and 10 mL Vacutainer® tubes were used for collection. Two Vacutainer® tube types were used for each animal: one containing a clot activator for serum collection, the other contained ethylenediamine tetra-acetic acid (EDTA) to prevent clotting. Tubes were inverted repetitively immediately after collection prior to storage on ice for transport to the laboratory. […]
Urine samples were collected by attachment of a clean plastic bag using SuperGlue™ to the fleece on either side of the preputial opening. […] Urine specific gravity (USG) was determined using a refractometer (VQ5600 refractometer, VetQuip, Australia).
Haematological and biochemical analysis was performed by the laboratory within 60 minutes of blood collection. Haematological analytes were measured using a CellDyn 3700 Haematology System (Abbott Diagnostics, Abbott Park, Ill., USA). […]

[3] = system: lolitrem B intoxication; assay: KBr pre-treatment in rodent model of PRGT (lolitrem B injection), tremor analysis and novel arena test; format: in vivo, mice
Experimental: Mice were administered 2500 ppm KBr in their drinking water for 7 days prior to injection with lolitrem B (2 mg/kg IP).

[4] = PK studies performed prior to this trial (Combs and Edwards, personal communication); cited from earlier work
[5] = sheep, Group 2: toxic feed (lolitrem B 0.16 mg/kg LW), no treatment
[6] = 2500 ppm KBr in drinking water 7 days prior to lolitrem B 2 mg/kg IP, one hour post injection
[7] = 2500 ppm KBr in drinking water 7 days, 3.5 hours post lolitrem B 2 mg/kg IP
[8] = sheep, Group 3: toxic feed plus single oral 300 mg/kg KBr on day of falling
[9] = sheep, Group 4: toxic feed plus prophylactic oral KBr (300, 120, 120 then 20 mg/kg daily), 22 days
[10] = sheep, Group 5: prophylactic oral KBr only, no toxic feed, 22 days

CC(C)=C[C@H]1O[C@H]2[C@H]3O[C@@]34[C@H](CC[C@@]3(C)[C@@]4(O)CC[C@H]4Cc5c([nH]c6ccc7c(c56)C[C@@H]5[C@@H](C7=O)C(C)(C)OC5(C)C)[C@@]43C)O[C@@H]2C(C)(C)O1 [lolitrem B]
time from Type 1 to Type 2 gait changes ([1]; intoxicated sheep): approximately 9 days | Menace reflex ([1]; lolitrem B intoxicated sheep): either lost or reduced | pupillary light reflex ([1]; lolitrem B intoxicated sheep): normal | Ventral strabismus, animals affected ([1]; sheep, Group 2 (toxin only)): 9/9 | Altered stance, mean number of days to onset (+/−s.e.m.) [1, 5]: 11.78(+/−2.58) days | Altered stance, number of animals affected [1, 5]: 9/9 | Fine tremor, mean number of days to onset (+/−s.e.m.) [1, 5]: 8.22(+/−2.58) days | Fine tremor, number of animals affected [1, 5]: 9/9 | First clinical signs, mean number of days to onset (+/−s.e.m.) [1, 5]: 7.56(+/−2.06) days | First clinical signs, number of animals affected [1, 5]: 9/9 | Major body clonus, mean number of days to onset (+/−s.e.m.) [1, 5]: 17.33(+/−3.51) days | Major body clonus, number of animals affected [1, 5]: 3/9 | Ventral strabismus, animals affected ([1]; sheep, Group 3 (toxin, acute KBr on day of falling)): 7/9 | Ventral strabismus, animals affected ([1]; sheep, Group 4 (toxin plus prophylactic KBr)): 6 | Renal function (creatinine, urea) [2]: mildly compromised

[Br-].[K+] [potassium bromide]
peak tremor frequency [3, 6]: reduced | tremor to movement ratio [3, 6]: reduced | movement in novel arena test [3, 7]: increased | time freezing in novel arena test [3, 7]: reduce | Altered stance, mean number of days to onset (+/−s.e.m.) [1, 8]: 10.22(+/−2.10) days | Altered stance, number of animals affected [1, 8]: 9/9 | Fine tremor, mean number of days to onset (+/−s.e.m.) [1, 8]: 12.43(+/−4.82) days | Fine tremor, number of animals affected [1, 8]: 7/9 | First clinical signs, mean number of days to onset (+/−s.e.m.) [1, 8]: 8.56(+/−1.94) days | First clinical signs, number of animals affected [1, 8]: 9/9 | Major body clonus, mean number of days to onset (+/−s.e.m.) [1, 8]: 11.67(+/−2.88) days | Major body clonus, number of animals affected [1, 8]: 3/9 | animals showing evidence of mild anxiolysis ([1]; sheep, Group 4: toxic feed plus prophylactic oral KBr): ^aIncludes 4/9 animals showing evidence of mild anxiolysis | Altered stance, mean number of days to onset (+/−s.e.m.) [1, 9]: 8.33(+/−1.22) days | Altered stance, number of animals affected [1, 9]: 9/9 | Fine tremor, mean number of days to onset (+/−s.e.m.) [1, 9]: 12.14(+/−4.45) days | Fine tremor, number of animals affected [1, 9]: 7/9 | First clinical signs, mean number of days to onset (+/−s.e.m.) [1, 9]: 6.33(+/−1.73) days | First clinical signs, number of animals affected [1, 9]: 9/9^a | Major body clonus, mean number of days to onset (+/−s.e.m.) [1, 9]: 10.67(+/−2.65) days | Major body clonus, number of animals affected [1, 9]: 5/9 | altered stance reported earlier than in toxin-only counterparts ([1]; sheep, Group 4 versus Groups 2 and 3): approximately two | animals showing evidence of mild anxiolysis ([1]; sheep, Group 5: prophylactic oral KBr only): ^bIncludes 5/9 animals showing evidence of mild anxiolysis | Altered stance, mean number of days to onset (+/−s.e.m.) [1, 10]: 11.0(+/−4.69) days | Altered stance, number of animals affected [1, 10]: 4/9 | Fine tremor, mean number of days to onset (+/−s.e.m.) [1, 10]: 11.00(+/−0.0) days | Fine tremor, number of animals affected [1, 10]: 1/9 | First clinical signs, mean number of days to onset (+/−s.e.m.) [1, 10]: 10.75(+/−4.46) days | First clinical signs, number of animals affected [1, 10]: 8/9^b | Major body clonus, mean number of days to onset (+/−s.e.m.) [1, 10]: 0 days | Major body clonus, number of animals affected [1, 10]: 0/9 | range of onset of mild mood changes ([1]; sheep, potassium bromide at the prophylactic dose): 4 to 17 days | time of peak serum bromide levels post administration [4]: 6 h
